Assay [1] has as its target T1, partially purified recombinant human LCAD (Homo sapiens, UniProt P28330).
T1 construct: made in house
T1 sequence (P28330 31-430): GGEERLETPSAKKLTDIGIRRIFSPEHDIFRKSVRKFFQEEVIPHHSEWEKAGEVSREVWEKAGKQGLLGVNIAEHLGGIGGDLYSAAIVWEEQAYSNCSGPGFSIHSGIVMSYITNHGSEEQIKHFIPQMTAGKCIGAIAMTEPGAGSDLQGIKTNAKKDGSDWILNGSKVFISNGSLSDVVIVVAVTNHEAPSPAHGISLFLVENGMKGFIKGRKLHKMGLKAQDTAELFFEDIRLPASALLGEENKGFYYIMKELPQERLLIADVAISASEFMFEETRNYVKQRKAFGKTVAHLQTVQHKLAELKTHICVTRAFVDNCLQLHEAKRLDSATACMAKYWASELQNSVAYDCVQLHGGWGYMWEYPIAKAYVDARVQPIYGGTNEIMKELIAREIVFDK
In words: ETF fluorescence reduction assay with LCAD. It counts as biochemical.

For assay [2], the target named is T2, purified recombinant human MCAD (Homo sapiens, UniProt P11310).
T2 construct: made in house; host or cells: E. coli JM105, co-expressed with GroEL/GroES
T2 sequence (P11310 26-421): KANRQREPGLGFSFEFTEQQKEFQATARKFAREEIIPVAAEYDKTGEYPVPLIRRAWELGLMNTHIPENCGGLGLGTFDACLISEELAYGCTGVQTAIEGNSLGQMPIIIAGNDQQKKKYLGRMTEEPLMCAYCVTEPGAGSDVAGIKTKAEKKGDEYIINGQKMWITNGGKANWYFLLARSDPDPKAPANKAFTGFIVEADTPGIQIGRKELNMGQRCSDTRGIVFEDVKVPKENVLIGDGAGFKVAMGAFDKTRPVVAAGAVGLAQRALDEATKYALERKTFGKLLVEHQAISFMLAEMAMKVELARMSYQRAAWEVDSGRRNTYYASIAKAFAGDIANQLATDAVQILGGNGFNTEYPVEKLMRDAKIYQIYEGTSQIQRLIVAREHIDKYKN
Description: Formation of the charge transfer complex (reductive half-reaction), absorbance at 447/570 nm. It counts as binding. Particulars: Stockell plot, substrate:subunit ratio 1:1; enzyme 25.2 μM; anaerobic, pH 8.0; read-out: apparent dissociation constant (KD app). On the procedure:
(§1) Purification of Recombinant Human MCAD.
(§2) Expression and purification of recombinant human MCAD was performed as previously described for isovaleryl-CoA dehydrogenase with minor modifications (18). E. coli JM105 cells (Amersham Biosciences Corp; Piscataway, N.J.) containing the human MCAD high expression vector pKeMCAD (19) and a GroEL/GroES expression plasmid were grown overnight in a 200-ml LB broth pre-culture that was used to inoculate 4×2-L cultures in 2-YT broth. The cells were left to grow overnight at 37° C. with shaking and MCAD expression was induced the next morning using IPTG at a final concentration of 0.5 mM for 3 hrs. Cells were harvested by centrifugation and resuspended at 4° C. in 2:1 weight to volume of 100 mM potassium phosphate pH 8.0, 150 mM EDTA. Cells were then lysed by sonication on ice. […]
Formation of the charge transfer ternary complex was monitored by observing the increase in absorbance at the 570 nm area, concomitant with the decrease of absorbance at 447 nm area, of the purified MCAD in 120 mM potassium phosphate spectrum under anaerobic conditions using a Jasco V-650 Spectrophotometer. […] Ten seconds of equilibration time were allowed after mixing and the sample was scanned for UV/Visible light absorbance at 250 to 800 nm. […] The “apparent” productive-binding constant (Kd app) was calculated with the following equation: […]

The next assay deals with T3, recombinant human MCAD (Homo sapiens, UniProt P11310).
T3 construct: made in house; host or cells: E. coli JM105, co-expressed with GroEL/GroES
T3 sequence (P11310 26-421): T2 sequence (P11310 26-421)
Description: ETF fluorescence reduction assay with purified MCAD (oxidative half-reaction). Type of assay: biochemical. On the procedure:
as §1
as §2, with “ice. Including high amounts of EDTA in the cell lysis buffer can protect residues with groups, e.g., cysteine thiols and methionine sulfide groups, vulnerable to modification by oxygen reactive species generated during sonication cell suspension. This was effective in improving enzyme preparations resulting higher specific activity and consistent kinetic behavior. Cellular debris was removed by centrifugation first at 250,000×g for 60 minutes each.” for “ice.”
(§3) ETF Fluorescence Reduction Assay. […]

In another assay the target is T4, Purified SCAD (Homo sapiens, UniProt P16219).
T4 construct: made in house
T4 sequence (P16219 25-412): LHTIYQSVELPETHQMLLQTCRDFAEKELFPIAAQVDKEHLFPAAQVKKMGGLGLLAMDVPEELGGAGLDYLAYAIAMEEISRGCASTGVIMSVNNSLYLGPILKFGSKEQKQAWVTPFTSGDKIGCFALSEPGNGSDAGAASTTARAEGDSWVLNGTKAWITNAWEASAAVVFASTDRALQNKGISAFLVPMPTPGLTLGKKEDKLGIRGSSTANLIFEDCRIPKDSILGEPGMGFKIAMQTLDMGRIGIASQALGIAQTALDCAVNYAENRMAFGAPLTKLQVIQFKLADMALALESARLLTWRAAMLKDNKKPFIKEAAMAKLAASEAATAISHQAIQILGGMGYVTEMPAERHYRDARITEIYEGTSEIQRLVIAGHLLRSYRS
In words: ETF fluorescence reduction assay with SCAD. Type of assay: biochemical. On the procedure:
as §2, with “ice. Including high amounts of EDTA in the cell lysis buffer can protect residues with groups, e.g., cysteine thiols and methionine sulfide groups, vulnerable to modification by oxygen reactive species generated during sonication cell suspension. This was effective in improving enzyme preparations resulting higher specific activity and consistent kinetic behavior. Cellular debris was removed by centrifugation first at 250,000×g for 60 minutes each. The final supernatant was dialyzed for 4 hours with vigorous stirring in 50 mM potassium phosphate pH 8.0, at 4° C.” for “ice.”
as §3

A further assay addresses T5, Purified ACAD9 (Homo sapiens, UniProt Q9H845).
T5 construct: made in house
T5 sequence (Q9H845 38-621): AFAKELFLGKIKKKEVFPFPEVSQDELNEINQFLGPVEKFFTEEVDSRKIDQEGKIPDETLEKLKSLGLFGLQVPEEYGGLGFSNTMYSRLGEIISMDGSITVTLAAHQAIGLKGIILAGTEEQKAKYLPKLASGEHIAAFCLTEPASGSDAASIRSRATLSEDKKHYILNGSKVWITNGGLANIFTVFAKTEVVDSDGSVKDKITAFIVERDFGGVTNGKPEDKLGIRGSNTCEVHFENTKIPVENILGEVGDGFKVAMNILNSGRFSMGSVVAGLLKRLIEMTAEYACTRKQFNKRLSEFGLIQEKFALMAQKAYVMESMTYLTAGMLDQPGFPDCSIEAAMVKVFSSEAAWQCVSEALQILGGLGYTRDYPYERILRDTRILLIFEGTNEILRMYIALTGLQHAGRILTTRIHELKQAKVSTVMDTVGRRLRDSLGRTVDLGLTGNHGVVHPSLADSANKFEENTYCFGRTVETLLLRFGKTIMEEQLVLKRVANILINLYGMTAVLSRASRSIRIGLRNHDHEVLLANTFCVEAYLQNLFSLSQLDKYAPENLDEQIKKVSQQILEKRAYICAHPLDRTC
Description: ETF fluorescence reduction assay with ACAD9. It counts as biochemical.

Assay [3] concerns extracts from wild type fibroblast cells (GM085401). Description: ETF fluorescence reduction assay of cell extract, wild type fibroblasts. Type of assay: biochemical, human. Particulars: 30 μM substrate. As to the method: (§4) Fibroblast Cell Culture and Extract Preparation.
(§5) Wild type and MCAD deficient cells (homozygous for the K304E mutation) with the designation GM085401 and GM07844, respectively, were obtained form Coriell Institute for Medical Research, Camden, N.J. Cells were cultured in DMEM medium supplemented with glutamine and ampicillin and streptomycin, and 20% fetal bovine serum. Cells were harvested from a T175 flask by sonication with a buffer consisting of 50 mM Tris buffer and 10 mM EDTA, pH 8.0. The cell debris was removed by centrifugation and the cell free extract was assayed for protein and enzyme activity as described below.
(§6) ETF Fluorescence Reduction Assay.
(§7) The ETF reduction assay was performed using a Jasco FP-6300 spectrofluorometer (Easton, Md.) with a cuvette holder heated with circulating water at 32° C. The assay was otherwise performed as described (22), at the indicated substrate concentrations. The enzyme was diluted 1200-fold into a buffer containing 50 mM Tris, pH 8.0, 5 mM EDTA and 50% glycerol, and […] were used for each assay. The ETF concentration in the reaction mixture was 2 μM. Spectra Manager 2 software (Jasco Inc) was used to collect data and calculate reaction rate and Microsoft Excel was used to calculate the kinetic parameters.

For assay [4], the system named is extract from fibroblast cells deficient in MCAD (GM07844, homozygous K304E). In words: ETF fluorescence reduction assay of cell extract, MCAD deficient fibroblasts. Type of assay: biochemical, human. Particulars: similar amounts of extract. On the procedure: as §4, §5, §6, §7
The next assay addresses T6, MCAD K304E mutant (Homo sapiens, UniProt P11310, K329E).
T6 sequence (P11310 26-421 K329E): T2 sequence (P11310 26-421) with K304E
The settings on record: reported in ref. 27; cited from earlier work.

Substitutions are numbered along the chain they refer to.

Take `CCCCCCCCCCCC(=O)SCCNC(=O)CCNC(=O)[C@H](O)C(C)(C)COP(=O)(O)OP(=O)(O)OC[C@H]1O[C@@H](n2cnc3c(N)ncnc32)[C@H](O)[C@@H]1OP(=O)(O)O` [C12-CoA]: in assay [1], the “activity of LCAD with substrate” value is recorded as “active”.

As for `CC(C)(COP(=O)(O)OP(=O)(O)OC[C@H]1O[C@@H](n2cnc3c(N)ncnc32)[C@H](O)[C@@H]1OP(=O)(O)O)[C@@H](O)C(=O)NCCC(=O)NCCSC(=O)CCCc1ccccc1` [phenylbutyryl-CoA], the Kd in assay [2] worked out at 2160 nM. The “activity of MCAD with substrate” value on recombinant human MCAD is “no activity”. Besides, the “activity of LCAD with substrate” value in assay [1] is “not active”. Besides, at Purified SCAD, the “activity of SCAD with substrate” value was “no activity”. For the same compound, on Purified ACAD9, the “activity of ACAD9 with substrate” value is on record as “no activity”. The Enzyme specific activity in assay [3] was 3.41 (±0.53) nmoles ETF reduced x min^−1 x mg^−1; in assay [4] it was “No activity”.

With `CCCCCCCC(=O)SCCNC(=O)CCNC(=O)[C@H](O)C(C)(C)COP(=O)(O)OP(=O)(O)OC[C@H]1O[C@@H](n2cnc3c(N)ncnc32)[C@H](O)[C@@H]1OP(=O)(O)O` [octanoyl-CoA], the Kd in assay [2] worked out at 120 nM. Also, the Enzyme specific activity in assay [3] was 4.01 (±1.34) nmoles ETF reduced x min^−1 x mg^−1; in assay [4], “No activity”. The “thermal stability of the MCAD K304E mutant” value at MCAD K304E mutant was “provide thermal stability”.

Turning to `CCCCCCCCCCCCCCCC(=O)SCCNC(=O)CCNC(=O)[C@H](O)C(C)(C)COP(=O)(O)OP(=O)(O)OC[C@H]1O[C@@H](n2cnc3c(N)ncnc32)[C@H](O)[C@@H]1OP(=O)(O)O` [palmitoyl-CoA], the Enzyme specific activity in assay [3] is recorded as 9.10 (±2.13) nmoles ETF reduced x min^−1 x mg^−1; in assay [4], 3.91 (±1.34) nmoles ETF reduced x min^−1 x mg^−1.

Take `CC(C)CCCC(C)C(=O)SCCNC(=O)CCNC(=O)[C@H](O)C(C)(C)COP(=O)(O)OP(=O)(O)OC[C@H]1O[C@@H](n2cnc3c(N)ncnc32)[C@H](O)[C@@H]1OP(=O)(O)O` (stereo partly drawn) [2,6-dimethylheptanoyl-CoA]: in assay [1], the “activity of LCAD with substrate” value is “active”.

The record behind these values is US9649285B2, “Treatment of medium-chain acyl-CoA dehydrogenase deficiency” (UNIVERSITY OF PITTSBURGH—OF THE COMMONWEALTH SYSTEM OF …, priority 2012, dated 2017).
